Measured values as given in ChEMBL document CHEMBL5528044, “Exploring the Function of (+)-Naltrexone Precursors: Their Activity as TLR4 Antagonists and Potential in Treating Morphine Addiction” (J Med Chem, 2024).
The source made the active and inactive calls. The rule behind the calls is not given here.

Tests used:
Mus musculus [1] = test: Inhibition of chronic morphine-induced microglia activation in Balb/c mouse assessed as reduction in microglia cell number in brain nucleus accumbens region at 0.2 mg/kg,ip administrated for 6 consecutive days by immunofluorescence staining based analysis; assay type: functional, organism-based
Mus musculus [2] = test: Inhibition of chronic morphine-induced microglia activation in Balb/c mouse assessed as reduction in microglia cell number in brain ventral tegmental area region at 0.2 mg/kg,ip administrated for 6 consecutive days by immunofluorescence staining based analysis; assay type: functional, organism-based
Mus musculus [3] = test: Inhibition of morphine-induced addiction behavior in Balb/c mouse assessed as decrease in total distance traveled in field at 0.005 to 0.2 mg/kg,ip administrated on day 4 to 10 by open-field test; assay type: functional, organism-based; settings: dose 0.005-0.2 mg/kg, time 7.0 day
[4] = Tmax in Balb/c mouse at 20 mg/kg,po administration and measured upto 24 hrs by LC-MS/MS analysis; assay type: ADME, organism-based; settings: in vivo
Mus musculus [5] = test: Inhibition of chronic morphine-induced microglia activation in Balb/c mouse assessed as reduction in Iba1 expression in brain ventral tegmental area region at 0.2 mg/kg,ip administrated for 6 consecutive days by immunofluorescence staining based analysis; assay type: functional, organism-based
[6] = Toxicity in morphine-induced Balb/c mouse assessed body weight loss at 0.2 mg/kg,ip administrated for 1 week and measured on day 15; assay type: organism-based; settings: in vivo, 360 h, time 15 day
[7] = target: T1, Toll-like receptor 4 (Mus musculus) (UniProt Q9QUK6); test: Antagonist activity at TLR4 signaling pathway in mouse BV-2 cells assessed as downregulation of LPS-induced IRAK1 phosphorylation at 5 uM incubated for 1 hr by Western blot analysis; assay type: cell-based
T1 sequence (whole entry): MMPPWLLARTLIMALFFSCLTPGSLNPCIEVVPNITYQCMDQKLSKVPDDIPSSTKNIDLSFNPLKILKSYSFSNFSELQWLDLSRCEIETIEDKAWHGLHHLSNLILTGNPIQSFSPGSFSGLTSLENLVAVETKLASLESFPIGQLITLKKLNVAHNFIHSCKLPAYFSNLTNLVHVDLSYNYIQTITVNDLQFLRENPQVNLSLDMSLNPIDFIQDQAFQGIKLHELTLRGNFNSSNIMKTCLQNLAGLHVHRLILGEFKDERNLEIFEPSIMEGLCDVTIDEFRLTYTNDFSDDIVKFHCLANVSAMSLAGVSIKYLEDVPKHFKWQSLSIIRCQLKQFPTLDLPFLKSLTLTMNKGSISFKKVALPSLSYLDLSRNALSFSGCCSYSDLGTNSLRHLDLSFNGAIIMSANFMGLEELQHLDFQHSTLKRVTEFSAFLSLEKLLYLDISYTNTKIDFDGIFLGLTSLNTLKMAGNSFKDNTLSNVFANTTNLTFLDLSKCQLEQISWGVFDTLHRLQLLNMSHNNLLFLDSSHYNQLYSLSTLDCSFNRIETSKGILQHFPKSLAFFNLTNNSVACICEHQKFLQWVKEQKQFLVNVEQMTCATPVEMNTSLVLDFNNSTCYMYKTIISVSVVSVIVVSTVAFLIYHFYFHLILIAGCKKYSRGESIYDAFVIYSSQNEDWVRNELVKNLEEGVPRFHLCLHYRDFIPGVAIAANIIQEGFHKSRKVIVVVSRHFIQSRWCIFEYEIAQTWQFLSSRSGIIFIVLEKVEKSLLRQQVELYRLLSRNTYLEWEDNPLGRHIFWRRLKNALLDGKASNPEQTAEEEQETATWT

[8] = target: T1, Toll-like receptor 4 (Mus musculus); test: Antagonist activity at TLR4 signaling pathway in mouse BV-2 cells assessed as downregulation of LPS-induced JNK phosphorylation at 5 uM incubated for 1 hr by Western blot analysis; assay type: cell-based; settings: filed as antagonist
[9] = AUC (0 to infinity) in Balb/c mouse at 20 mg/kg,po administration and measured upto 24 hrs by LC-MS/MS analysis; assay type: ADME, organism-based; settings: in vivo
[10] = Volume of distribution at steady state in Balb/c mouse at 2 mg/kg,iv administration and measured upto 24 hrs by LC-MS/MS analysis; assay type: ADME, organism-based; settings: in vivo, read-out: Vdss
[11] = target: T1, Toll-like receptor 4 (Mus musculus); test: Antagonist activity at TLR4 signaling pathway in mouse BV-2 cells assessed as downregulation of LPS-induced ERK phosphorylation at 5 uM incubated for 1 hr by Western blot analysis; assay type: cell-based; settings: filed as antagonist
Mus musculus [12] = test: Inhibition of chronic morphine-induced microglia activation in Balb/c mouse assessed as reduction in TNF-alpha mRNA expression in brain ventral tegmental area region at 0.2 mg/kg,ip administrated for 6 consecutive days by qPCR analysis; assay type: functional, organism-based
Mus musculus [13] = test: Inhibition of chronic morphine-induced microglia activation in Balb/c mouse assessed as reduction in TNF-alpha mRNA expression in brain nucleus accumbens region at 0.2 mg/kg,ip administrated for 6 consecutive days by qPCR analysis; assay type: functional, organism-based
Mus musculus [14] = test: Inhibition of morphine-induced addiction behavior in Balb/c mouse assessed as decrease in morphine-induced behavioral sensitization during induction phase at 0.005 to 0.2 mg/kg,ip administrated on day 4 to 10 by open-field test; assay type: functional, organism-based; settings: dose 0.005-0.2 mg/kg, time 7.0 day
[15] = Half life in Balb/c mouse at 2 mg/kg,iv administration and measured upto 24 hrs by LC-MS/MS analysis; assay type: ADME, organism-based; settings: in vivo
Mus musculus [16] = test: Inhibition of chronic morphine-induced microglia activation in Balb/c mouse assessed as reduction in Iba1 expression in brain medial prefrontal cortex region at 0.2 mg/kg,ip administrated for 6 consecutive days by immunofluorescence staining based analysis; assay type: functional, organism-based
[17] = target: T1, Toll-like receptor 4 (Mus musculus); test: Antagonist activity at TLR4 signaling pathway in mouse BV-2 cells assessed as inhibition of LPS-induced TRIF recruitment at 5 uM incubated for 1 hr by co-immunoprecipitation based Western blot analysis; assay type: cell-based; settings: filed as antagonist
[18] = target: T1, Toll-like receptor 4 (Mus musculus); test: Antagonist activity at TLR4 in mouse BV-2 cells assessed as inhibition of LPS-induced NF-kappaB activation at 4 uM incubated for 24 hrs by dual-glo luciferase assay; assay type: cell-based; settings: filed as antagonist
Mus musculus [19] = test: Inhibition of chronic morphine-induced microglia activation in Balb/c mouse assessed as reduction in microglia cell number in brain medial prefrontal cortex region at 0.2 mg/kg,ip administrated for 6 consecutive days by immunofluorescence staining based analysis; assay type: functional, organism-based
[20] = Cmax in Balb/c mouse at 20 mg/kg,po administration and measured upto 24 hrs by LC-MS/MS analysis; assay type: ADME, organism-based; settings: in vivo
[21] = Cytotoxicity against mouse BV-2 cells incubated for 24 hrs by crystal violet staining based assay; assay type: toxicity, cell-based
[22] = Oral bioavailability in Balb/c mouse at 20 mg/kg administration and measured upto 24 hrs by LC-MS/MS analysis; assay type: ADME, organism-based; settings: in vivo
Mus musculus [23] = test: Inhibition of morphine-induced addiction behavior in Balb/c mouse assessed as decrease in locomotor activity at 0.005 to 0.2 mg/kg,ip administrated on day 4 to 10 by open-field test; assay type: functional, organism-based; settings: dose 0.005-0.2 mg/kg, time 7.0 day
[24] = Ratio of drug concentration in brain to plasma in Balb/c mouse at 2 mg/kg,iv measured after 30 mins by LC-MS/MS analysis; assay type: ADME, organism-based; settings: 0.5 h
Mus musculus [25] = test: Inhibition of chronic morphine-induced microglia activation in Balb/c mouse assessed as reduction in TNF-alpha mRNA expression in brain medial prefrontal cortex region at 0.2 mg/kg,ip administrated for 6 consecutive days by qPCR analysis; assay type: functional, organism-based

Structure (SMILES) | inhibition (Mus musculus [1]) | inhibition (Mus musculus [2]) | inhibition (Mus musculus [3]) | Tmax [4] | inhibition (Mus musculus [5]) | Activity [6] | Activity [7] | Activity [8] | AUC(0-inf) [9] | Vd [10] | Activity [11] | inhibition (Mus musculus [12]) | inhibition (Mus musculus [13]) | inhibition (Mus musculus [14]) | half-life [15] | inhibition (Mus musculus [16]) | Activity [17] | Activity [18] | inhibition (Mus musculus [19]) | Cmax [20] | also measured
COc1ccc2c3c1O[C@@H]1C(=O)C=C[C@]4(O)[C@H](C2)N(C)CC[C@@]314 (single isomer, unassigned) | inactive | Active | inactive | 1.2 h | Active | Non-Toxic | inactive | Active | 89.6 ng·h/mL | 97 L/kg | Active | Active | Active | Dose-Dependent Effect | 0.6 h | Active | Active | Active | Active | 25 ng/mL | IC50 at 24 h [21]: 23.6 µM; bioavailability [22]: 54.3%; inhibition (Mus musculus [23]): Dose-Dependent Effect; BPR [24]: 73.6%; inhibition (Mus musculus [25]): Active
CN1CC[C@@]23c4c5ccc(O)c4O[C@@H]2C(=O)C=C[C@]3(O)[C@@H]1C5 (single isomer, unassigned) | inactive | Active | inactive | 1.2 h | Active | Non-Toxic | inactive | Active | 295 ng·h/mL | 75.5 L/kg | Active | Active | Active | Dose-Dependent Effect | 2.2 h | Active | Active | Active | Active | 51.5 ng/mL | IC50 at 24 h [21]: 13.7 µM; bioavailability [22]: 41.1%; inhibition (Mus musculus [23]): Dose-Dependent Effect; BPR [24]: 18.4%; inhibition (Mus musculus [25]): Active
